Where two headings read alike, the source gives them in different places.
How the values were obtained:
SERT = SERT (Homo sapiens, UniProt P31645); settings: known values, background art; read-out: binding affinity (Ki) to SERT; cited from earlier work
[1] = biological target: serotonin transporter (SERT) (Rattus norvegicus, UniProt P31652); test: Radioligand binding assay with [3H]citalopram on synaptic membrane; settings: for affinity (Ki value) compared with Fluoxetine: comparison in words on Table 3; for activity / binding affinity relative to 6-nitro-2-piperazin-1-yl-quinoline: ratio of Ki values of Table 3
Chain of serotonin transporter (SERT) (P31652 whole entry): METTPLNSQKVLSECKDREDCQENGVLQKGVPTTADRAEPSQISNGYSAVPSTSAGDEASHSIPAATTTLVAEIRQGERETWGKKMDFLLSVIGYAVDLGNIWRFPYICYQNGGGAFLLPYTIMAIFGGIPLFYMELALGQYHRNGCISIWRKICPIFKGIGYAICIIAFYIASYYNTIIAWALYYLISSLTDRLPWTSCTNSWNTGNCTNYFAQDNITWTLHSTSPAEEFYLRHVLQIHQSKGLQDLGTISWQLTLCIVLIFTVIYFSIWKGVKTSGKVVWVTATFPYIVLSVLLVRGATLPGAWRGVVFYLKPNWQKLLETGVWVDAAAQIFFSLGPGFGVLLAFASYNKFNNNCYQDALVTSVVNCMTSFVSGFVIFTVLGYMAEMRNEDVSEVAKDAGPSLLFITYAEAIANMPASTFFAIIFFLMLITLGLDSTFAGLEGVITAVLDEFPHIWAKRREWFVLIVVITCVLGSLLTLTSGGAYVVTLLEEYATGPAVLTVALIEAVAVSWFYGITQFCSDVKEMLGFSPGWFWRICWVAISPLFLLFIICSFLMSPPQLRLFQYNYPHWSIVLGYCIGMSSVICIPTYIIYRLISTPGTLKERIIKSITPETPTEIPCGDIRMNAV
Method: After male SD Rats (250˜350 g) were decapitate by using quillotine, the whole brains were removed. The cerebral cortex were carefully cut to slices and weighed. 0.32 M sucrose which is 10 times of sucrose was added to the slices, and then homogenized twice for 15 seconds using Polytron. After being centrifuged at 4° C. for 10 minutes in 1,000×g, the thus obtained supernatant was re-centrifuged at 20,000×g for 20 minutes and then discarded. The precipitate was isolated, re-suspended in deionized water, was provided with osmotic shock for 10 minutes, and then centrifuged at 80,000×g for 20 minutes. The thus obtained precipitate was suspended in 50 ml of triacetate buffer, re-centrifuged at 48,000×g, and then transferred to a refrigerator. On the day of assay, the cells were thawed on ice, washed by centrifugation (48,000×g, 20 minutes).
The mixture was shaken at 25° C. for 60 minutes, incubated, filtered using a Brandel Cell Harvester through a GF/B Watman filter presoaked in 0.05 polyethylimine. The filters were then washed twice with 5 ml of ice-cold buffer, dried, added with 7 ml of ultima gold scintillation cocktail, and then shaken for 3˜4 hours.

Acute toxicity in rats = type: in vivo; settings: SD, rat, in vivo
Method: (§1) 6-week old SPF SD line rats were used in the tests for acute toxicity. 6-chloro-2-piperazin-1-yl-quinoline or 4-chloro-6-nitro-2-piperazin-1-yl-quinoline were suspended in 1 ml saline buffer solution and […] administered to anterior tibialis once to 6 rats per group at the dosage of 500 mg/kg. Death, clinical symptoms, and weight change in rats were observed, hematological tests and biochemical tests of blood performed, and any abnormal signs in the gastrointestinal organs of chest and abdomen checked with eyes during autopsy. […]

SPF SD line rats = test: Acute toxicity in rats; type: in vivo
Method: as §1

ICR mice = test: Assay for anti-depression activity using a tail suspension test; type: in vivo; settings: for anti-depression effect higher than that of control (immobility time): ICR mice, oral
Method: The inventors carried out the tail suspension test to evaluate an anti-depression activity of the present compound. ICR mice were divided into 5 groups made up of 8 subjects, and orally dosed with 4-chloro-6-nitro-2-piperazin-1-yl-quinoline dissolved in saline buffer solution in a variety of its concentration 60 minutes prior to the beginning of the experiment. The evaluation of the activity was estimated using administering group, negative, and positive group. After suspending the animal by the tail induced the immobility, the immobility time was measured 6 minutes watching a recorded tape for video. The final data was obtained an average value measured by 3 persons to accurate the data.

depression-induced mice = test: Assay for anti-depression activity using a forced swimming test; type: in vivo; settings: orally administered, 50 mg/kg (FIG. 1), p<0.003
Method: After 4-chloro-6-nitro-2-piperazin-1-yl-quinoline was dissolved in dimethylsulfoxide in a variety of concentrations and injected to depression-induced mice, the time of immobility was measured. The immobility time may be evaluated by measuring the effect against anti-depression. Because immobility means a helplessness of the mice, in this case, slow immobility should be understood to reduce depression.
4-chloro-6-nitro-2-piperazin-1-yl-quinoline was orally administered after 23 hours from the first treatment, subsequently, after 24 hours, the animals were placed in the cage to carry out the second treatment and the immobility time was measured for 5 minutes. The immobility caused by the second treatment was recorded while watching video tape. In order to make an objective observation, we made an average of the results of make than 3 people.

[2] = 1 nM [3H]citalopram, rat cerebral cortex synaptic membrane, 25° C., 60 minutes

Chain of SERT (P31645 whole entry, species assumed): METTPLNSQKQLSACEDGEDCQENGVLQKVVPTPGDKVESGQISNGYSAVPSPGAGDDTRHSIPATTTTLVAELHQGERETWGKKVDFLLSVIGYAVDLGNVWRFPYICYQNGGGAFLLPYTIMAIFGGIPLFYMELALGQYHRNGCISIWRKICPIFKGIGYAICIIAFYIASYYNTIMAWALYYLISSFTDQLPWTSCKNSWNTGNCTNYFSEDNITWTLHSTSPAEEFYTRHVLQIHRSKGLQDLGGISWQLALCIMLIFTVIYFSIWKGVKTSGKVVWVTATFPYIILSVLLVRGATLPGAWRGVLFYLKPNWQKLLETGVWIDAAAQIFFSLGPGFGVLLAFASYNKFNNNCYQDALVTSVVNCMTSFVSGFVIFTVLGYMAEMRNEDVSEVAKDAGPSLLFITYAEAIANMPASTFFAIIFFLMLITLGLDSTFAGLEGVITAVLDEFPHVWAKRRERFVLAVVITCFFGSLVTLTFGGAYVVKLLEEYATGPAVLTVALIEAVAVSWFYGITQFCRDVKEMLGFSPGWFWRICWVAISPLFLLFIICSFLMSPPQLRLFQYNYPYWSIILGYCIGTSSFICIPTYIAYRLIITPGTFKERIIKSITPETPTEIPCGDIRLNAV

Structure (SMILES)	Ki [1, 2] [nM]	Ki [1] [nM]	further results
O=[N+]([O-])c1ccc2nc(N3CCNCC3)ccc2c1 [6-nitro-2-piperazin-1-yl-quinoline, 6-nitro-2-(piperazin-1-yl)quinoline, reference compound]	0.17 ± 0.03	–	Ki (SERT): 0.018 nM
Cc1cc2cc([N+](=O)[O-])ccc2nc1N1CCNCC1 [Example 1, 3-methyl-6-nitro-2-(piperazin-1-yl)quinoline]	–	8.45 ± 0.62	–
CCc1cc2cc([N+](=O)[O-])ccc2nc1N1CCNCC1 [Example 2, 3-ethyl-6-nitro-2-(piperazin-1-yl)quinoline]	–	0.36 ± 0.02	affinity (Ki value) compared with Fluoxetine [1]: exceed that of Fluoxetine
CCCc1cc2cc([N+](=O)[O-])ccc2nc1N1CCNCC1 [Example 3, 6-nitro-2-(piperazin-1-yl)-3-propylquinoline]	–	0.26 ± 0.01	affinity (Ki value) compared with Fluoxetine [1]: exceed that of Fluoxetine
O=[N+]([O-])c1ccc2nc(N3CCNCC3)c(CCCCl)cc2c1 [Example 4, 3-(3-chloropropyl)-6-nitro-2-piperazin-1-yl-quinoline]	–	1.08 ± 0.17	–
O=[N+]([O-])c1ccc2nc(N3CCNCC3)c(CCCF)cc2c1 [Example 5, 3-(3-fluoropropyl)-6-nitro-2-piperazin-1-yl-quinoline]	0.32 ± 0.01	–	affinity (Ki value) compared with Fluoxetine [1]: exceed that of Fluoxetine
Ic1ccc2nc(N3CCNCC3)ccc2c1 [Example 6, 6-iodo-2-piperazin-1-yl-quinoline]	6.6 ± 0.52	–	–
Brc1ccc2nc(N3CCNCC3)ccc2c1 [Example 7, 6-bromo-2-piperazin-1-yl-quinoline]	0.91 ± 0.07	–	–
Clc1ccc2nc(N3CCNCC3)ccc2c1 [Example 8, 6-chloro-2-piperazin-1-yl-quinoline]	1.68 ± 0.13	–	LD50 (Acute toxicity in rats; rats, single administration of 500 mg/kg, read-out: estimated LD50): > 500 mg/kg; acute toxicity observations (death, clinical symptoms, weight change) (SPF SD line rats; rats, single administration of 500 mg/kg, 6 rats per group): did not cause any specific clinical symptoms, weight change, or death
O=[N+]([O-])c1ccc2nc(N3CCNCC3)c(Br)cc2c1 [Example 9, 3-bromo-6-nitro-2-(piperazin-1-yl)quinoline]	12.6 ± 1.14	–	–
O=[N+]([O-])c1ccc2nc(N3CCNCC3)cc(Cl)c2c1 [Example 10, 4-chloro-6-nitro-2-(piperazin-1-yl)quinoline]	–	0.017	activity / binding affinity relative to 6-nitro-2-piperazin-1-yl-quinoline [1]: 10 times; activity / binding affinity relative to 6-nitro-2-piperazin-1-yl-quinoline ([1]; listed as 4-chloro-6-nitro-2-piperazin-1-yl-quinoline): over ten times; effect higher than that of the control (immobility time) (ICR mice; FIG. 2B, 1 mg/kg or 10 mg/kg, anova p<0.005): about 65%; anti-depression effect higher than that of control (immobility time) (ICR mice; 5 mg/kg): 56%; anti-depression effect higher than that of control (immobility time) (ICR mice; 50 mg/kg): 60%; ED50 (ICR mice; Mus musculus, expected from evenness of effect from 1 to 50 mg/kg): < 1 mg/kg; LD50 (Acute toxicity in rats; 500 mg/kg): > 500 mg/kg; acute toxicity observations (death, clinical symptoms, weight change) (SPF SD line rats; rat, in vivo, 500 mg/kg): did not cause any specific clinical symptoms, weight change, or death; anti-depression effect higher than that of the control (immobility time) (depression-induced mice): 30%
C=Cc1cc(N2CCNCC2)nc2ccc([N+](=O)[O-])cc12 [Example 13, 6-nitro-2-(piperazin-1-yl)-4-vinylquinoline]	–	1.42	–
O=[N+]([O-])c1ccc2nc(N3CCNCC3)cc(-c3ccco3)c2c1 [Example 14, 4-(2-furanyl)-6-nitro-2-(piperazin-1-yl)quinoline]	–	6.4	–
CC1CN(c2ccc3cc([N+](=O)[O-])ccc3n2)CCN1 (stereo not shown) [Example 15, 2-(3-methylpiperazin-1-yl)-6-nitroquinoline]	22.2 ± 1.7	–	–
CNCCN(C)c1ccc2cc([N+](=O)[O-])ccc2n1 [Example 16, 2-(N-methyl-N-(2-N′-methylamino)ethyl)amino-6-nitroquinoline]	8.43 ± 0.45	–	–
O=[N+]([O-])c1ccc2nc(N3CCCNCC3)ccc2c1 [Example 17, 2-[1,4]diazepin-1-yl-6-nitroquinoline]	1.9 ± 0.15	–	–

— patent US20050165006A1, “Quinoline derivatives, their preparation and pharmaceutical compositions comprising the same” (priority 2002, published 2005)
